Test in all cases: inhibition of tumour cell growth, NCI panel, 48 h
In assay [1] the test system is EKVX.
The test system of assay [2] is HT-29.
For assay [3], the system named is M14.
Assay [4] concerns MCF7.
Assay [5] has as its system NCI-H226.
The subject of assay [6] is NCI-H23.
Assay [7] deals with NCI/ADR-RES.
Assay [8] has as its system PC-3.
Assay [9] concerns SK-MEL-5.
Assay [10] concerns SK-OV-3.
The subject of assay [11] is SR.
The subject of assay [12] is U-251.
Assay [13] has as its system DMS-114.
In assay [14] the test system is LXFL 529.
For assay [15], the system named is M19-MEL.
Assay [16] has as its system SF-268.
The subject of assay [17] is SK-MEL-2.
Assay [18] relates to SNB-78.
The test system of assay [19] is XF498.

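Grown in 96-well plates, cells were treated for 48 hours with each compound at five concentrations. Insufficient inhibition: endpoint recorded as highest concentration tested. GI50 = concentration required for 50% inhibition of growth.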 Calls of active or inactive are those of the source. Cut-off read from the data, not from the text of the source: active = GI50 up to about 1.1 µM and inactive = higher. Some results are limits rather than exact numbers.

In the case of `COC(=O)C#Cc1cccc(OC)c1OC`, the GI50 was 19.5 µM (inactive) in assay [1]; 27 µM (inactive) in assay [2]; 49.7 µM (inactive) in assay [3]; 19.7 µM (inactive) in assay [4]; 43.3 µM (inactive) in [5]; 41.3 µM (inactive) in assay [6]. Moreover, the GI50 was 30.3 µM (inactive) in [7]; 36.7 µM (inactive) in assay [8]; 29.6 µM (inactive) in [9]; 48 µM (inactive) in assay [10]; 18.7 µM (inactive) in assay [11]; 31.8 µM (inactive) in [12].
On to `C/N=c1/ssc(=S)n1C(C)C`, for which the GI50 in assay [13] is 3.13 µM (inactive); in assay [1], 57.8 µM (inactive); in assay [2] it was 3.3 µM (inactive); in assay [14], 4.18 µM (inactive); in [3], 12.8 µM (inactive); in assay [15], 13.7 µM (inactive). The GI50 in assay [5] is 56.2 µM (inactive); in [6], 12.2 µM (inactive); in assay [16] it was 33.8 µM (inactive); in [17] it was 42 µM (inactive); in [9], 19.8 µM (inactive).
For the molecule `O=C(O[C@@H](/C=C/c1ccccc1)P1(=O)N(Cc2ccccc2)[C@H]2CCCC[C@@H]2N1Cc1ccccc1)c1ccccc1`, the GI50 is 4.12 µM (inactive) in [1]; 3.08 µM (inactive) in [2]; 4.18 µM (inactive) in assay [3]; 2.32 µM (inactive) in assay [4]; 2.79 µM (inactive) in assay [5]; 2.96 µM (inactive) in assay [6]. Besides, the GI50 in assay [7] was 3.52 µM (inactive); in [8], 2.43 µM (inactive); in [16], 5.5 µM (inactive); in assay [17] it was 1.85 µM (inactive); in assay [9], 1.93 µM (inactive); in [10] it was 4.54 µM (inactive). The GI50 in assay [11] was 2.86 µM (inactive); in assay [12], 2.45 µM (inactive).
Turning to `Nc1nc(SCCNC(=O)CCc2ccc(O)c(I)c2)nc2c1ncn2C1OC(CO)C(O)C1O` (stereo not given), the GI50 in assay [13], in assay [1], in assay [2], in [14], in assay [3] and in [15] was > 100 µM (inactive) throughout. Besides, the GI50 in [5], in assay [6], in [16], in assay [17], in [9] and in [10] was > 100 µM (inactive) each time. The GI50 in [18], in assay [11], in assay [12] and in assay [19] was > 100 µM (inactive) each time.
With `CCOC(=O)c1csc(NC(=O)CCN(CC)CC)n1`, the GI50 is 63.2 µM (inactive) in assay [1]; 23.8 µM (inactive) in assay [2]; 25 µM (inactive) in assay [3]; 26 µM (inactive) in assay [4]; 30.3 µM (inactive) in assay [5]; 64.7 µM (inactive) in assay [6]. The GI50 in assay [7] is 40.2 µM (inactive); in assay [8], 41 µM (inactive); in assay [17], 55.7 µM (inactive); in assay [9], 45.8 µM (inactive); in assay [10] it was > 100 µM (inactive); in [11] it was 21.9 µM (inactive). Besides, in assay [12], the GI50 is 81.3 µM (inactive).
Take `COc1nc(Cl)c(Cl)c(Cl)n1.COc1nc(Cl)nc(Cl)c1Cl`: the GI50 is 0.381 µM (active) in assay [1]; 6.9 µM (inactive) in assay [2]; 8.36 µM (inactive) in assay [3]; 2.62 µM (inactive) in assay [4]; 42.5 µM (inactive) in [5]; 6.71 µM (inactive) in assay [6]. Besides, the GI50 in assay [7] is 7.87 µM (inactive); in [8] it was 2.66 µM (inactive); in assay [16], 6.18 µM (inactive); in assay [17], 7.62 µM (inactive); in assay [9], 15.2 µM (inactive); in [10], 10.3 µM (inactive). Besides, the GI50 in assay [11] is 0.09 µM (active); in assay [12], 3.78 µM (inactive).

Values taken from ChEMBL document CHEMBL1201862, “PubChem BioAssay data set” (2004).
